Measurements reported in patent US20030096015A1, “Cytogenic/nucleogenic healing” (priority 1997, published 2003).

System: epithelial cells
Type: cell-based, human

Compound: OC[C@H]1O[C@@](CO)(O[C@H]2O[C@H](CO)[C@@H](O)[C@H](O)[C@H]2O)[C@@H](O)[C@@H]1O [5% Sucrose, sucrose]
- time after which sticky clumps were invaded by fungi and bacteria (0.5% solution): 48 h
- cell replication / tissue formation observed (0.5% solution, isolated epithelial cells, ambient temperature): Rapid cell replication was observed in form of sticky clumps with no distinct differentiation into tissue formation
- Potential for Tissue Growth (ambient temperature (24° C.)): sticky lump
